# Peptide text beside a SMILES is read from it. * marks the point of attachment. Cbz = O=C(OCc1ccccc1)*; CH2F = FC*
# Tests used:
# bbc3 mRNA [1] = experiment: Northern blot of bbc3 mRNA in E1a/Ras/p53MER mouse fibroblast cell line; type: cell-based; conditions: p53-estrogen receptor fusion cells, 4-OHT 100 nM, 5 hours
# Description: (§1) Northern blots were hybridized with a murine bbc3 cDNA probe, followed by re-hybridization with an actin probe.
# Cell death induced by etoposide and other DNA-damaging drugs in murine fibroblasts is mediated, at least in part, by the p53 tumor suppressor (Levine, A. J., Cell 88:323–31 (1997); Vousden, K. H., Cell 103:691–4 (2000)).
# (§2) All cell lines used were obtained from ATCC, unless otherwise noted. HeLa/Bcl-XL cells were generated by stable transfection of HeLa cells with a vector encoding a Flag-epitope tagged BCl-xL. Murine myeloid leukemia M1 cells containing a temperature sensitive p53-val135 mutant (M1p53ts), and E1A/ras transformed p53^−/−mouse embryonic fibroblasts containing a p53-estrogen receptor fusion, have been described previously (Vater, C. A., et al., Oncogene 13:739–48 (1996); Yonish-Rouach, E., et al., Nature 352:345–7 (1991)).
# (§3) Total RNA was isolated from mouse thymocytes (RNeasy system, Qiagen). Poly(A)+RNA (FastTract system, Invitrogen) was prepared in all other experiments. 10 μg of total RNA or 3 μg of poly(A)+RNA per lane was denatured and separated by electrophoresis in 1% formaldehyde agarose gels. Northern blotting was performed following standard methods.
# Bbc3 protein [2] = experiment: Western blot of Bbc3 protein in HT29 cells; type: cell-based, human; conditions: for ability of serum to suppress Bbc3 protein levels: HT29 cells in serum, 50 μM LY294002, 10 μM PD98059, 30 μM AG1478 or 50 μM AG1024; for ability of serum to suppress Bbc3 protein levels / Bbc3 protein expression: 24 hrs; for Bbc3 protein expression: 100 ng/ml IGF-1, 50 ng/ml EGF or 25 ng/ml PDGF
# Method: (§4) HT29 cells were incubated for one day in the absence of serum (−), and then incubated in media containing either serum, 100 ng/ml IGF-1, 50 ng/ml EGF, or 25 ng/ml PDGF, for 24 hrs. Bbc3 was detected by western blot analysis, followed by sequential probing of the blot with anti-Bax and anti-Bcl-xL antibodies.
# HT29 cells were cultured as in FIG. 6B and then incubated for 24 hrs in media containing either serum, 100 ng/ml IGF-1, or 100 ng/ml IGF-1 in the presence of 50 μM LY294002 (added 1 hr prior to IGF-1). Bbc3 was detected by western blot analysis.
# HT29 cells were grown in the presence of serum (lane 1), and then incubated for 24 hrs in the absence of serum, or in the presence of serum supplemented with 50 μMLY294002.
# HT29 cells were incubated for one day in the absence of serum (−), and then incubated in media containing either serum, 50 ng/ml EGF, or 50 ng/ml EGF+30 nM AG1478, for 24 hrs. Bbc3 was detected by western blot analysis.
# HT29 cells were cultured in the presence of serum for one day (+) and then incubated for 24 hrs with serum or without serum, or in the presence of serum supplemented with either 10 μM PD98059, 30 μM AG1478, or 50 μM AG1024. Bbc3 was detected by western blot analysis, followed by reprobing of the blot with anti-Bax.
# (§5) A mouse monoclonal antibody, KM140, was made against a recombinant GST-Bbc3 fusion protein. The KM140 epitope was mapped to residues 73–76 by probing a blot with arrayed overlapping Bbc3 peptides (Research Genetics). Cells were plated at 3–10×10^6 cells per 100 mm dish in either serum containing (10% FBS), or serum free media (0% FBS, 0.1% BSA). Cell lysates were prepared, electrophoresed (100 to 200 μg per lane) on 4–20% polyacrylamide reducing gels, and analyzed by western blotting as described previously (Chittenden, T., et al., EMBO J. 14:5589–96 (1995)).
# bbc3 mRNA [3] = experiment: Northern blot of bbc3 mRNA in NIH3T3 cells; type: cell-based, murine; conditions: etoposide 50 μM, 6 hours
# Method: as §1
# To evaluate whether the activity of bbc3 might be under transcriptional control, the expression of bbc3 was examined in response to apoptotic stimuli likely to involve new mRNA/protein synthesis.
# as §3
# Bbc3 protein [4] = experiment: Western blot of Bbc3 in serum-starved Jurkat cells; type: cell-based, human; conditions: without serum 24 hrs, z-VAD 100 μM
# Description: (§6) Bbc3 and PARP were detected by western blot analysis.
# (§7) Deprivation of serum is a strong pro-apoptotic stimulus for many cultured tumor cell lines, triggering cell death or sensitizing cells to other apoptotic stimuli. Thus, the effect of serum deprivation on bbc3 mRNA expression and Bbc3 protein levels was also examined, using a monoclonal antibody generated against recombinant human Bbc3. A striking increase in Bbc3 protein levels was observed upon serum deprivation in multiple human tumor cell lines (FIG. 5B), including cell lines that lack functional p53. […] Therefore, the induction of Bbc3 precedes caspase activation, and is not simply a response to the engagement of the cell death program.
# as §5
# PARP = experiment: Western blot of PARP cleavage in serum-starved Jurkat cells; type: cell-based, human; conditions: without serum 24 hrs, z-VAD 100 μM
# Description: as §6, §7, §5
# GST-Bcl-xL = GST-Bcl-xL (Homo sapiens, UniProt Q07817); experiment: Bcl-xL competition binding assay (ELISA, immobilized Bak BH3 peptide); conditions: competition with immobilized Bak BH3 peptide
# Sequence of GST-Bcl-xL (Q07817 whole entry): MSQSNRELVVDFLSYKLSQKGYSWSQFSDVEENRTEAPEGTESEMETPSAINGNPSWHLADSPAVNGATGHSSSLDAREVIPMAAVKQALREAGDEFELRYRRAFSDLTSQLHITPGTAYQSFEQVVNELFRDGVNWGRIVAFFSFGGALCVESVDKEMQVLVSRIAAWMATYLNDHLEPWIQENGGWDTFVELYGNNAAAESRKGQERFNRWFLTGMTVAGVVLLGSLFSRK
# Method: Binding of GST-Bcl-xL to an immobilized Bak BH3 peptide was measured by ELISA (triplicate samples, +S.D.), in the presence of the indicated concentrations of a competing synthetic Bbc3 BH3 or Bak BH3 peptide.
# Cell lysates were prepared and co-immunoprecipitation assays were performed as described previously (Chittenden, T., et al., EMBO J. 14:5589–96 (1995)). The Bcl-xL competition binding assay was performed as previously described (Zhou, X. M., et al., J. Biol. Chem. 275:25046–51 (2000)), using synthetic BH3 peptides comprising residues 133–152 of Bbc3, and residues 70–89 of Bak.
# Bcl-xL = experiment: Western blot of Bcl-xL in HT29 cells; type: cell-based, human; conditions: serum-starved HT29 cells, 24 hrs; 100 ng/ml IGF-1 or 50 ng/ml EGF
# Method: as §4, §5
# Bax = experiment: Western blot of Bax in HT29 cells; type: cell-based, human; conditions: serum-starved HT29 cells, 24 hrs; 100 ng/ml IGF-1 or 50 ng/ml EGF
# Method: as §4, §5
# bbc3 gene promoter = bbc3 gene promoter luciferase reporter assay (pGL3/0.9) in HeLa/Bcl-xL cells; type: cell-based, human; conditions: pGL3/0.9, no serum, 100 ng/ml IGF-1, 24 hrs
# Method: The pGL3/0.9 bbc3 gene promoter luciferase reporter plasmid was transfected into HeLa-Bcl-xL cells. At 24 hrs after transfection, cells were incubated for an additional 24 hrs in the presence of 20% serum (+) with or without 50 μM LY294002, or in the absence of serum (−) with or without 100 ng/ml IGF-1. Luciferase activity was measured and normalized for transfection efficiency (β-galactosidase).
# Additional experiments were performed to determine whether the bbc3 gene promoter was regulated by signal transduction pathways known to play a role in cell survival. A bbc3 gene promoter-luciferase reporter construct containing 0.9 kb of the bbc3 gene promoter region, was transfected into HeLa/Bcl-xL cells and the activity of the promoter measured by luciferase assays 48 hours after transfection. […] Thus, a PI-3 kinase dependent pathway controls, at least in part, the activity of the bbc3 gene promoter. […]
# Luciferase assays were performed using the Dual-Light System (Tropix) for the combined detection of luciferase and β-galactosidase. […] Luciferase and β-galactosidase activities were measured 24 hours following transfection. […] Cell culture medium was changed to either DMEM containing 20% serum, or DMEM without serum, 24 hours following transfection and luciferase/β-galactosidase levels were measured after an additional 24 hours of incubation. […]
# bbc3 mRNA [5] = experiment: Northern blot of bbc3 mRNA in M1p53ts cells after temperature shift; type: cell-based, murine; conditions: M1p53ts cells shifted to 32° C. for 6 hours in the presence of IL-6
# Description: as §1
# (Yonish-Rouach, E., et al., Nature 352:345–7 (1991)). […] (FIG. 3C). […] (FIG. 3C).
# as §2, §3
compound,measurement,setting,value
4-hydroxytamoxifen [4-OHT],bbc3 mRNA levels,bbc3 mRNA [1],sufficient to induce bbc3 mRNA levels
COc1cc2ncnc(Nc3cccc(Cl)c3)c2cc1OC [AG1478],ability of serum to suppress Bbc3 protein levels,Bbc3 protein [2],blocked the ability of EGF and serum to suppress Bbc3 protein expression
same,ability of EGF to suppress Bbc3 protein expression,"Bbc3 protein [2]; serum-starved HT29 cells, 50 ng/ml EGF + 30 nM AG1478, 24 hrs",blocked the ability of EGF and serum to suppress Bbc3 protein expression
COc1cccc(-c2cc(=O)c3ccccc3o2)c1N [PD98059],ability of serum to suppress Bbc3 protein levels,Bbc3 protein [2],impaired the ability of serum to suppress Bbc3 protein expression
COc1cc([C@@H]2c3cc4c(cc3[C@@H](O[C@@H]3O[C@@H]5CO[C@@H](C)O[C@H]5[C@H](O)[C@H]3O)[C@H]3COC(=O)[C@H]23)OCO4)cc(OC)c1O [etoposide],bbc3 mRNA levels,bbc3 mRNA [3],rapid induction of bbc3 mRNA levels
CC(C)(C)c1cc(C=C(C#N)C#N)cc(Br)c1O [tyrphostin AG1024],ability of serum to suppress Bbc3 protein levels,Bbc3 protein [2],impaired the ability of serum to suppress Bbc3 protein expression
CC(NC(=O)C(NC(=O)OCc1ccccc1)C(C)C)C(=O)NC(CC(=O)O)C(=O)CF (stereo not drawn) [z-VAD] (Cbz-Val-Ala-Asp-CH2F; configuration not given here),induction of Bbc3 protein levels by serum deprivation,Bbc3 protein [4],no impact on the induction of Bbc3 protein levels
same,cleavage of the caspase substrate PARP,PARP,"prevented cleavage of the caspase substrate, PARP"
Bbc3 BH3 peptide: 20 amino acid synthetic peptide encompassing the Bbc3 BH3 domain (residues 133 to 152) (WAREIGAQLRRMADDLNAQY),binding affinity to recombinant GST-Bcl-xL in vitro,GST-Bcl-xL,affinity comparable to a previously characterized Bak BH3 peptide
"EGF: growth factor with broad anti-apoptotic activity (NSDSECPLSHDGYCLHDGVCMYIEALDKYACNCVVGYIGERCQYRDLKWWELR; UniProt P01133 971-1023, looked up)",Bcl-xL protein level,Bcl-xL,no effect
same,Bax protein level,Bax,no effect
same,Bbc3 protein expression,Bbc3 protein [2]; serum-starved HT29 cells,strongly inhibited Bbc3 protein expression
IGF-1: growth factor with broad anti-apoptotic activity,Bcl-xL protein level,Bcl-xL,no effect
same,Bax protein level,Bax,no effect
same,Bbc3 protein expression,Bbc3 protein [2]; serum-starved HT29 cells,strongly inhibited Bbc3 protein expression
same,induction of bbc3 gene promoter activity (luciferase) in the absence of serum,bbc3 gene promoter,substantially reduced
"IL-6: IL-6, which suppresses apoptosis induced by p53 in M1 cells",induction of bbc3 mRNA by wild-type p53,bbc3 mRNA [5],did not prevent induction of bbc3 mRNA
PDGF,Bbc3 protein expression,Bbc3 protein [2]; serum-starved HT29 cells,failed to suppress Bbc3 levels

# Source: US7202024B2, “bbc3 Gene promoter and methods for identifying modulators of apoptosis and bbc3 gene expression using a bbc3 gene promoter” (Immunogen Inc., priority 2001, dated 2007)
